From PMC10770036, “Novel dual inhibitors of PARP and HDAC induce intratumoral STING-mediated antitumor immunity in triple-negative breast cancer” (Cell Death & Disease, 2024) come the findings set out here.

Some results are limits rather than exact numbers.

One test has as its system MDA-MB-468 cells. Description: MTT cell viability assay, MDA-MB-468. As to conditions: Homo sapiens, MDA-MB-468, 72 h, read-out: IC50 MDA-MB-468.
A further test deals with TNBC cells. The test can be described thus: Transwell migration assay. As to conditions: 48 h, compared with the vehicle. Type of test: cell-based, human. The protocol:
Cell migration and invasion assays were performed using Transwell chambers with 8 μm pores without Matrigel (for migration assay) or with Matrigel (for invasion assay).
Cell migration and invasion assays were performed using Transwell chambers with 8 μm pores (Corning) without Matrigel (for migration assay) or with Matrigel (for invasion assay). MDA-MB-436 and MDA-MB-231 cells were resuspended in serum-free Leibovitz’s L-15 medium and seeded in the upper chamber at a density of 12,000 cells/100 μL. The chambers were incubated in 24-well plates containing Leibovitz’s L-15 medium with 10% FBS and PARP/HDACi or DMSO. After 48 h, the cells were fixed with 4% paraformaldehyde and stained with crystal violet. The cells on the upper surface of the filters were removed by swabbing with a cotton swab, and the images were captured at 5× magnification under an inverted phase contrast microscope (Leica Microsystems).

The subject of a further test is H3K9 acetylation. Description: Western blot of histone H3 lysine 9 acetylation in TNBC cells. As to conditions: TNBC cell lines, 48 h. Type of test: cell-based, human. How it is done: Western blot analysis was performed as previously described, and all western blot analyses were performed at least three times.
Western blot analysis was performed as previously described. Briefly, whole cell or tissue lysates were prepared using ice-cold Nonidet P-40 buffer mixed with protease and phosphatase inhibitors (Roche, IN, USA) and centrifuged at 14,000 × g at 4 °C for 10 min. The protein lysates were fractionated by sodium dodecyl sulfate–polyacrylamide gel electrophoresis (SDS–PAGE) and transferred to polyvinylidene fluoride (PVDF) membranes (Merck, Darmstadt, Germany). Membranes were incubated in 1× TBST buffer containing 5% nonfat powdered milk at room temperature for 2 h. The indicated primary antibody was incubated with PVDF membranes, followed by a washing step using 1× TBST and a secondary antibody conjugated to HRP. Signal detection was carried out using the Western ECL Substrate kit (Bio-Rad, Hercules, CA, USA). […]

The target of the next test is T1, recombinant HDAC1 (Homo sapiens, UniProt Q13547).
T1 construct: purchased Active Motif
T1 sequence (Q13547 whole entry): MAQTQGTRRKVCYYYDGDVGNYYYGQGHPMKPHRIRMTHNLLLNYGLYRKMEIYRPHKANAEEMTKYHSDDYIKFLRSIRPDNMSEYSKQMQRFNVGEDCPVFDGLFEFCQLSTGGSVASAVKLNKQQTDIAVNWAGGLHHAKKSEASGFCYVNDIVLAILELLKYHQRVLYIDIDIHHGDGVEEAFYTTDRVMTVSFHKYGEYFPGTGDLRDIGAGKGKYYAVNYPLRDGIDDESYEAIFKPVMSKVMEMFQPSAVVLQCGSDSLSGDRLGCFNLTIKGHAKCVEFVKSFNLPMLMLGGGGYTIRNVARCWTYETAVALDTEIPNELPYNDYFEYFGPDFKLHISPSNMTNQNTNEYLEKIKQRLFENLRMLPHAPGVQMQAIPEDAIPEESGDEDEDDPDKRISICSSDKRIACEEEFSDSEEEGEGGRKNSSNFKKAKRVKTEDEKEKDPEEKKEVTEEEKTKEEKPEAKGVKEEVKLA
The test can be described thus: HDAC1 inhibition assay (Ac-peptide-AMC fluorescence). It is filed as biochemical. How it is done: The in vitro HDAC inhibition assays were carried out by Sundia MediTech Co. Ltd. in Shanghai, China. […] Reactions were stopped with trypsin, and the samples were incubated for another 90 min at 37 °C. […] IC50 values were obtained using GraphPad Prism software.

The target of the next test is T2, PARP1 (Homo sapiens, UniProt P09874).
T2 construct: purchased BPS Bioscience 80580
T2 sequence (P09874 whole entry): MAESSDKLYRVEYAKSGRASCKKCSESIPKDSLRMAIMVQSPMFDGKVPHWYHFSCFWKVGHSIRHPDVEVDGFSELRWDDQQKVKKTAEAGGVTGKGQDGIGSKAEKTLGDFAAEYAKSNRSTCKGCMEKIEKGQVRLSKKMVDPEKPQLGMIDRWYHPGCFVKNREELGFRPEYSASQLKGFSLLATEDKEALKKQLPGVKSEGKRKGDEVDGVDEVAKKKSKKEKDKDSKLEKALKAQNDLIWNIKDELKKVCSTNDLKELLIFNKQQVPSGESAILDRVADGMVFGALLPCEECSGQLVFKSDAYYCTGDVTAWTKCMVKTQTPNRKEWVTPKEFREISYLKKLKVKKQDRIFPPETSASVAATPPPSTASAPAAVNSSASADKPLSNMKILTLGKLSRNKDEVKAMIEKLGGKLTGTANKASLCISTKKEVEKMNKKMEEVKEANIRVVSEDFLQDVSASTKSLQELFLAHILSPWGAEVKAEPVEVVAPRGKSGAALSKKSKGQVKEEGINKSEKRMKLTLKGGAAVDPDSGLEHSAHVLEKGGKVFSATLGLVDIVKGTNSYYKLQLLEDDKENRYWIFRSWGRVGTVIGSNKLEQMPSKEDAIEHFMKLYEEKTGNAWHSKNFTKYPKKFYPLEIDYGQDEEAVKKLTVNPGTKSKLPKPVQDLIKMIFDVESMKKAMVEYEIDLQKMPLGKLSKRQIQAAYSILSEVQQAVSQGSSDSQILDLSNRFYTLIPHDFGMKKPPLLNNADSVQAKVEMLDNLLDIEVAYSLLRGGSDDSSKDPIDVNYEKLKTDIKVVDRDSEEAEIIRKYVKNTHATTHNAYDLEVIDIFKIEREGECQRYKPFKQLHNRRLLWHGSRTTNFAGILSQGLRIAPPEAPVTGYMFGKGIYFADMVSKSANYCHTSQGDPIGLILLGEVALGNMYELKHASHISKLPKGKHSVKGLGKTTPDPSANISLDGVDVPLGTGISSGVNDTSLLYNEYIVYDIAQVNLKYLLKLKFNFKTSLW
The test can be described thus: PARP1 enzymatic inhibition assay (PARP1 Colorimetric Assay Kit). Type of test: biochemical. The protocol:
Briefly, the 1× histone mixture was added to each well and incubated overnight at 4 °C. Each well was washed three times with 200 µL 1× TBST buffer and filled with 200 µL Blocking buffer at room temperature for 90 min. Then, each well was filled with 25 µL of PARP master mixture (5 μL activated DNA + 2.5 μL 10× PARP Assay mixture + 2.5 μL 10× PARP buffer + 15 μL distilled water). Next, 5 µL of the compound of different concentrations was added to each well, and PARP enzyme was added and incubated at room temperature for 1 h. Next, streptavidin HRP solution was added and incubated at room temperature for 30 min. After adding 100 µL of colorimetric HRP substrate to each well, the plate was incubated until a blue color developed in the positive well, which contained PARP enzyme without inhibitors. The reaction was then quenched with 2 M sulfuric acid, and absorbance at 450 nm was measured using a microplate reader (BioTek, Winooski, VT, USA). After calculating the inhibition rate, the IC50 value was determined.

A further test deals with MCF-10A cells. The test can be described thus: MTT cell viability assay, MCF-10A. As to conditions: Homo sapiens, 72 h, read-out: IC50 MCF-10A.
The next test has as its system MDA-MB-231 cells. Description: MTT cell viability assay, MDA-MB-231. As to conditions: Homo sapiens, MDA-MB-231, 72 h, read-out: IC50 MDA-MB-231.

Method for MCF-10A cells: (§1) The viability assay was measured by a 3-(4,5-dimethylthiazol-2-yl)−2,5-diphenyltetrazolium bromide (MTT) assay.
(§2) In brief, cells were seeded at a density of 6,000 cells in 96-well plates and cultured overnight. […] After aspiration of the medium, the formazan crystals were dissolved in 100 μL of DMSO. The absorbance at 490 nm was measured using a microplate reader (BioTek). All these analyses were performed at least three times.
Method for MDA-MB-231 cells: as §1, §2
Method for MDA-MB-468 cells: as §1, §2

Consider `Nc1cc(F)ccc1NC(=O)/C=C/c1ccc(CN2CCN(C(=O)c3cc(Cc4n[nH]c(=O)c5ccccc45)ccc3F)CC2)cc1` [Compound B102], for which the IC50 in the test on MDA-MB-468 cells came to 0.27 ± 0.11 µM; at recombinant HDAC1, 1.69 µM; on PARP1, 0.019 µM; in the test with MCF-10A cells, 13.7 ± 0.23 µM; in the test on MDA-MB-231 cells it was 0.16 ± 0.02 µM. In addition, the “migration of TNBC cells” value with TNBC cells is “considerably inhibited the migration”. Moreover, in the test with H3K9 acetylation, the “acetylation of lysine 9 of histone H3 (H3K9)” value is recorded as “elevated the acetylation”.
As to `Nc1cc(F)ccc1NC(=O)CCc1ccc(CN2CCN(C(=O)c3cc(Cc4n[nH]c(=O)c5ccccc45)ccc3F)CC2)cc1` [Compound B302], the IC50 with MDA-MB-468 cells is 1.27 ± 0.58 µM; at recombinant HDAC1 it was greater than 10 µM; against PARP1, 0.0127 µM; in the test with MCF-10A cells, 36.8 ± 6.59 µM; with MDA-MB-231 cells, 2.83 ± 0.4 µM. For the same compound, in the test with TNBC cells, the “migration of TNBC cells” value is recorded as “considerably inhibited the migration”. Further, the “acetylation of lysine 9 of histone H3 (H3K9)” value in the test with H3K9 acetylation is listed as “elevated the acetylation”.
